{"source": "ChEMBL document CHEMBL1201862", "about": "“PubChem BioAssay data set” (2004)", "target": "Envelope glycoprotein gp160 (Human immunodeficiency virus 1, UniProt Q6QLK5)", "sequence (Q6QLK5 whole entry, the tested form may be a part)": "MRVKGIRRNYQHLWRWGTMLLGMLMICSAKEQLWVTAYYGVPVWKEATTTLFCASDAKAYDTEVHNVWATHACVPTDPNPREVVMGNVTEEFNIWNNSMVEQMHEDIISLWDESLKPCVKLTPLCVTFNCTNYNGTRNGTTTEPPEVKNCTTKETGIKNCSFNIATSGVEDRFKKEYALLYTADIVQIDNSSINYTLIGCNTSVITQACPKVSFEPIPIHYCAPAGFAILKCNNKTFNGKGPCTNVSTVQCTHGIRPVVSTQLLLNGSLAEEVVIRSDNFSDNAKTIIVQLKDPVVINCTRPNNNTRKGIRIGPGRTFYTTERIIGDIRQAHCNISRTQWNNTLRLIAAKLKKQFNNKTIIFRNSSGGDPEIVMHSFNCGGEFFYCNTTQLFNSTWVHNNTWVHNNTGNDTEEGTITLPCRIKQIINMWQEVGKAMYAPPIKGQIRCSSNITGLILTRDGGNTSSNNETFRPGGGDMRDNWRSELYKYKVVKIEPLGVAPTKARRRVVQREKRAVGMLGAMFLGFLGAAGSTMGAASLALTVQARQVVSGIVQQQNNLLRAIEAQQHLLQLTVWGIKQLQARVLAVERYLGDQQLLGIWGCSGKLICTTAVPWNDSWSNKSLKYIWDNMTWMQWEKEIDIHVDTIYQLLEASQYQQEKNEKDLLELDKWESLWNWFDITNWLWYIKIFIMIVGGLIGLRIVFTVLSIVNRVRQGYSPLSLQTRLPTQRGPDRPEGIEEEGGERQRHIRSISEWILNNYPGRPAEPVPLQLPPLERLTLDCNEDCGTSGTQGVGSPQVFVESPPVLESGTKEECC", "assay": "cell-free HIV fusion peptide-binding blockers – biochemical, uHTS, fluorescence dequenching, […] (AID 1986)", "note": "The source made the active and inactive calls. Rule as the data show it: actives have a measured IC50 and inactives only a lower limit."}
{"compound": "N#Cc1c(O)nc(SCc2cccc(Cl)c2)nc1-c1ccccc1", "values": [{"measurement": "IC50", "result": "24.8 µM (active)"}]}
{"compound": "O=C(O)c1cc(N/N=C/c2ccc(-c3ccccc3)cc2)ccc1Cl", "values": [{"measurement": "IC50", "result": "16.1 µM (active)"}]}
